Where a name gives a salt, the structure may show the parent alone.
Experiments:
[1] = test system: Ca9-22 cells; experiment: Cytotoxicity against Ca9-22 cells, MTT method, 48 h; assay type: cell-based, human; conditions: for CC50: Homo sapiens, Ca9-22, concentration required to kill 50% of the cells, 48 h, MTT, read-out: CC50 Ca9-22; for SI Ca9-22: average CC50 towards HGF, HPLF, HPC divided by CC50 against Ca9-22
Protocol: (§1) A literature procedure was followed when the compounds in series 3 and 4 were evaluated against three human oral squamous cell carcinoma cell lines Ca9-22 (RCB-1976), HSC-2 (RCB1945), HSC-4 (RCB1902) (purchased from RIKEN Cell Bank, Tukuba, Japan) and three human normal oral cells, gingival fibroblast (HGF), periodontal ligament fibroblast (HPLF) and pulp cells (HPC) (established according to the guideline of the intramural ethic committee, A0808) except the duration of incubation was increased from 24 h to 48 h. In brief, various concentrations of the compounds were added to the DMEM media, which was supplemented by 10% heat-inactivated fetal bovine serum. Incubation was undertaken at 37 °C. At the completion of the experiment, cell viability was determined by the MTT method.

[2] = test system: HSC-2 cells; experiment: Cytotoxicity against HSC-2 cells, MTT method, 48 h; assay type: cell-based, human; conditions: for CC50: Homo sapiens, HSC-2, concentration required to kill 50% of the cells, 48 h, MTT; for SI HSC-2: average CC50 towards HGF, HPLF, HPC divided by CC50 against HSC-2
Protocol: as §1

[3] = test system: HSC-4 cells; experiment: Cytotoxicity against HSC-4 cells, MTT method, 48 h; assay type: cell-based, human; conditions: for CC50: Homo sapiens, HSC-4, concentration required to kill 50% of the cells, 48 h, MTT, read-out: CC50 HSC-4; for SI HSC-4: average CC50 towards HGF, HPLF, HPC divided by CC50 against HSC-4
Protocol: as §1

[4] = test system: Ca9-22, HSC-2 and HSC-4 cells; experiment: Average over Ca9-22, HSC-2 and HSC-4 neoplastic cells; assay type: cell-based, human; conditions: for CC50: Homo sapiens, average of Ca9-22, HSC-2 and HSC-4, read-out: Average CC50; for Average SI: average of SI for Ca9-22, HSC-2 and HSC-4
Protocol: In order to assess whether the compounds in series 3 and 4 are more toxic to neoplasms than non-malignant cells, selective index (SI) figures were calculated. In the in vivo situation, a tumour is surrounded by a number of non-malignant cells.
In order to identify the most promising lead compounds in terms of both cytotoxic potencies and favourable SI values, potency–selectivity expression (PSE) values were computed. […] Outstanding results may be noted for four compounds that have PSE values in excess of 100,000 namely 3d, 4c–e. […] However, the relative SI/PSE distribution patterns between series 3 and 4 (from a to h) are nearly superimposable with each other (Figure 3). […] It has been reported that 3,5-bis(3-iodo-5-methoxy-4-propoxybenzylidene)-N-acetylpiperidin-4-one inhibited tubulin and destabilization of microtubules, while 3,5-bis(3,4,5-trimethoxybenzylidene)-N-benzoylpiperidin-4-one destabilizes the microtubules. Thus, it remained to investigate whether compound 4d acts as an inhibitor of the microtubule.
as §1

[5] = Cytotoxicity against non-malignant HGF cells, MTT method, 48 h; assay type: cell-based; conditions: human, gingival fibroblasts (HGF)
Protocol: as §1

[6] = Cytotoxicity against non-malignant HPLF cells, MTT method, 48 h; assay type: cell-based; conditions: human, periodontal ligament fibroblasts (HPLF)
Protocol: as §1

[7] = Cytotoxicity against non-malignant HPC cells, MTT method, 48 h; assay type: cell-based; conditions: human, pulp cells (HPC)
Protocol: as §1

[8] = Average over HGF, HPLF and HPC non-malignant cells; assay type: cell-based; conditions: human, HPLF and HPC non-malignant cells (average of the three)
Protocol: as §1

[9] = test system: CEM T-lymphoblastic leukemia cells; experiment: Cytotoxicity against CEM cells, MTT method, 24 h; assay type: cell-based; conditions: Homo sapiens, CCRF-CEM, concentration required to inhibit cell growth by 50%
Protocol: The method used for the evaluation of various compounds against human CEM cells has been reported previously. In brief, cells were grown in RPMI-1640 medium supplemented with 10% heat-inactivated fetal bovine serum. Different concentrations of compounds were added to the media, and after 24 h incubation, cytotoxicity was measured by the MTT method.

[10] = test system: HL-60 (TB) cells; experiment: NCI in vitro screen, leukemia HL-60 (TB); assay type: cell-based; conditions: Homo sapiens
From the text: (§2) In view of the encouraging result with CEM leukemic cells, consideration was given to an assessment in the NCI in vitro screening program. The oximes, but not the quaternary ammonium salts, were accepted for bioevaluation. Examination of the mean graphs confirms the sensitivity of leukemic cells to these compounds.

[11] = test system: K-562 cells; experiment: NCI in vitro screen, leukemia K-562; assay type: cell-based; conditions: Homo sapiens, K562
From the text: as §2

[12] = test system: Molt-4 cells; experiment: NCI in vitro screen, leukemia Molt-4; assay type: cell-based; conditions: Homo sapiens
From the text: as §2

[13] = test system: RPMI-8226 cells; experiment: NCI in vitro screen, leukemia RPMI-8226; assay type: cell-based; conditions: Homo sapiens
From the text: as §2

[14] = test system: SR cells; experiment: NCI in vitro screen, leukemia SR; assay type: cell-based; conditions: Homo sapiens
From the text: as §2

[15] = test system: leukemia cells; experiment: NCI in vitro screen, average of leukemia cells; assay type: cell-based; conditions: Homo sapiens
From the text: as §2

[16] = test system: All Cell Lines; experiment: NCI in vitro screen, all cell lines; assay type: cell-based; conditions: Homo sapiens
From the text: (§3) One particular reference drug is 5-fluorouracil, which is used in treating colon cancers.

[17] = test system: Colo205 cells; experiment: NCI in vitro screen, colon cancer Colo205; assay type: cell-based; conditions: Homo sapiens, COLO 205
From the text: as §3

[18] = test system: HCC-2998 cells; experiment: NCI in vitro screen, colon cancer HCC-2998; assay type: cell-based; conditions: Homo sapiens
From the text: as §3

[19] = test system: HCT-116 cells; experiment: NCI in vitro screen, colon cancer HCT-116; assay type: cell-based; conditions: Homo sapiens
From the text: as §3

[20] = test system: HCT-15 cells; experiment: NCI in vitro screen, colon cancer HCT-15; assay type: cell-based; conditions: Homo sapiens
From the text: as §3

[21] = test system: HT29 cells; experiment: NCI in vitro screen, colon cancer HT29; assay type: cell-based; conditions: Homo sapiens, HT-29
From the text: as §3

[22] = test system: KM12 cells; experiment: NCI in vitro screen, colon cancer KM12; assay type: cell-based; conditions: Homo sapiens
From the text: as §3

[23] = test system: SW-620 cells; experiment: NCI in vitro screen, colon cancer SW-620; assay type: cell-based; conditions: Homo sapiens
From the text: as §3

[24] = test system: colon cancer cells; experiment: NCI in vitro screen, average of colon cancer cells; assay type: cell-based; conditions: Homo sapiens
From the text: as §3

Row | Structure (SMILES) | CC50 [1] [nM] | SI Ca9-22 [1] | CC50 [2] [nM] | SI HSC-2 [2] | CC50 [3] [nM] | SI HSC-4 [3] | CC50 [4] [nM] | Average SI [4] | CC50 at 48 h [5] [nM] | CC50 at 48 h [6] [nM] | CC50 at 48 h [7] [nM] | CC50 at 48 h [8] [nM] | IC50 [9] [nM] | IC50 [10] [nM] | IC50 [11] [nM] | IC50 [12] [nM] | IC50 [13] [nM] | IC50 [14] [nM] | IC50 [15] [nM] | IC50 [16] [nM] | also measured
1 | COc1cc(/C=C2\CN(C(=O)CC[N+]3(C)CCC(=NO)CC3)C/C(=C\c3cc(OC)c(OC)c(OC)c3)C2=O)cc(OC)c1OC (stereo not drawn) [Compound 4h, (3~{E},5~{E})-1-[3-(4-hydroximino-1-piperidyl)propanoyl]-3,5-bis[(3,4,5-trimethoxyphenyl)methylene]piperidin-4-one methiodide] | 70 ± 10 | 20.4 | 220 ± 40 | 6.50 | 180 ± 40 | 7.94 | 160 | 11.6 | 620 ± 60 | 1320 ± 40 | 2350 ± 820 | 1430 | 5120 ± 140 | – | – | – | – | – | – | – | –
2 | O=C1/C(=C/c2ccc(Cl)c(Cl)c2)CN(C(=O)CCN2CCC(=NO)CC2)C/C1=C\c1ccc(Cl)c(Cl)c1 [Compound 3d, (3~{E},5~{E})-3,5-bis[(3,4-dichlorophenyl)methylene]-1-[3-(4-hydroximino-1-piperidyl)propanoyl]piperidin-4-one hydrochloride] | 20 ± 10 | 180 | 100 ± 20 | 35.9 | 70 | 51.3 | 60 | 89.1 | 1910 ± 220 | 3900 ± 1420 | 4970 ± 890 | 3590 | 8490 ± 340 | 1000 | 250 | 320 | 230 | 100 | 370 | 1300 | IC50 [17]: 390 nM; IC50 [18]: 360 nM; IC50 [19]: 320 nM; IC50 [20]: 270 nM; IC50 [21]: 320 nM; IC50 [22]: 250 nM; IC50 [23]: 230 nM; IC50 [24]: 310 nM
3 | O=C1/C(=C/c2ccc(F)cc2)CN(C(=O)CCN2CCC(=NO)CC2)C/C1=C\c1ccc(F)cc1 [Compound 3b, (3~{E},5~{E})-3,5-bis[(4-fluorophenyl)methylene]-1-[3-(4-hydroximino-1-piperidyl)propanoyl]piperidin-4-one hydrochloride] | 370 ± 190 | 28.1 | 730 ± 130 | 14.3 | 200 ± 80 | 52.0 | 430 | 31.5 | 7120 ± 40 | 9730 ± 230 | 14200 ± 2000 | 10400 | 1780 ± 210 | 1550 | 350 | 330 | 290 | 250 | 520 | 1150 | IC50 [17]: 1500 nM; IC50 [18]: 1410 nM; IC50 [19]: 220 nM; IC50 [20]: 370 nM; IC50 [21]: 320 nM; IC50 [22]: 230 nM; IC50 [23]: 200 nM; IC50 [24]: 610 nM
4 | COc1cccc2c1C(=O)c1c(O)c3c(c(O)c1C2=O)C[C@@](O)(C(=O)CO)C[C@@H]3O[C@H]1C[C@H](N)[C@H](O)[C@H](C)O1 [Doxorubicin, reference compound] | 470 ± 120 | 15.6 | 110 ± 10 | 66.5 | 150 ± 50 | 48.7 | 240 | 43.6 | 3440 ± 530 | 9730 ± 470 | 8770 ± 2140 | 7310 | – | – | – | – | – | – | – | – | –

From paper PMC8659243, “Design, Synthesis and Tumour-Selective Toxicity of Novel 1-[3-{3,5-Bis(benzylidene)-4-oxo-1-piperidino}-3-oxopropyl]-4-piperidone Oximes and Related Quaternary Ammonium Salts” (Molecules, 2021)
